Tests used:
[1] = tested on: thoracodorsal arteries (TDA); test: ATP release from intact TDA (luciferin:luciferase); type: cell-based, mouse; conditions: for effect on phenylephrine-induced ATP release from intact TDAs: phenylephrine 100 μmol/L, ^10Panx1 300 μmol/L, peptides 3 μmol/L
Experimental: Mouse TDAs of equal length were isolated and washed thoroughly to eliminate red blood cells. Vessels were placed in a well of a 96-well plate containing Krebs-HEPES solution supplemented with 1% BSA at 37° C. for 30 minutes to allow for degradation of any ATP released as a result of mechanical stimulation during manipulation of the vessel. For measurements performed on HEK cells: 24 hours after transfection, cells cultured in 24-well plates were cautiously washed twice with warm Krebs-HEPES-BSA and 300 μl of Krebs-HEPES-BSA was added to each well after the last wash as previously described. The plate was then kept in the incubator at 37° C. with 5% CO2 for 30 minutes to allow for degradation of ATP eventually released during the washes.
The ectonucleotidase inhibitor ARL67156 (300 μmol/L) was applied to each well. When indicated, ^10Panx1 (300 μmol/L) or the peptides analog to intracellular regions of Panx1 (3 μmol/L) were added along with the ARL67156. After a 30 minute incubation at 37° C. with the inhibitor(s), phenylephrine (100 μmol/L) or equivalent volume of Krebs-HEPES-BSA was added and the plate was kept at 37° C. After five minutes of phenylephrine stimulation, the media surrounding the TDA or the cells was transferred to an Eppendorf tube and centrifuged for five minutes at 5,000×g to eliminate eventual cell debris. Fifty microliters of the supernatant was transferred to a white-wall 96 well plate and placed in a FluoStar Omega luminometer. The ATP concentration was measured by adding 50 μL of luciferin:luciferase reagent (ATP bioluminescence assay kit HSII; Roche), which was injected into each well and the luminescence was immediately recorded. Data are expressed as a percent increase in ATP concentration compared to unstimulated condition. Each stimulated condition was compared to unstimulated condition performed on the same day, and all experiments were performed on at least 15 wells of HEK cells or three TDAs. Data were analyzed using a Kruskall Wallis test (non-parametric one-way ANOVA) followed by Dunn's post-hoc test.
To determine if the TDA response involved release of ATP, we dissected TDAs from C57Bl/6 mice and measured the accumulation of extracellular ATP in response to various agonists in the medium (FIG. 1E, inset). The TDAs were placed in a well of a 96 well plate in Krebs-HEPES solution and treated with the ectonucleotidase inhibitor ARL67156 for 30 minutes. Next, arteries were treated with a contractile agonist for five minutes and the amount of ATP in the media surrounding the vessel was determined using the ATP bioluminescence assay kit HSII (Roche).

Panx1 = molecular target: T1, Panx1 (Mus musculus, UniProt Q9JIP4); test: Whole-cell patch clamp of CBX-sensitive Panx1 current in HEK293 cells cotransfected with mPanx1 and α1DAR; type: cell-based; conditions: phenylephrine 20 μmol/L; for effect on phenylephrine-induced Panx1 current: cells pre-incubated with peptide 40-60 minutes
T1 construct: we progressively substituted amino acids in this region of full-length Panx1 with alanine residues; HA; expressed in transfected cells; host or cells: HEK293T cells, transient co-transfection with alpha1DAR plasmid (Origene, NM_013460, C-terminal Myc-DDK)
T1 sequence (Q9JIP4 whole entry): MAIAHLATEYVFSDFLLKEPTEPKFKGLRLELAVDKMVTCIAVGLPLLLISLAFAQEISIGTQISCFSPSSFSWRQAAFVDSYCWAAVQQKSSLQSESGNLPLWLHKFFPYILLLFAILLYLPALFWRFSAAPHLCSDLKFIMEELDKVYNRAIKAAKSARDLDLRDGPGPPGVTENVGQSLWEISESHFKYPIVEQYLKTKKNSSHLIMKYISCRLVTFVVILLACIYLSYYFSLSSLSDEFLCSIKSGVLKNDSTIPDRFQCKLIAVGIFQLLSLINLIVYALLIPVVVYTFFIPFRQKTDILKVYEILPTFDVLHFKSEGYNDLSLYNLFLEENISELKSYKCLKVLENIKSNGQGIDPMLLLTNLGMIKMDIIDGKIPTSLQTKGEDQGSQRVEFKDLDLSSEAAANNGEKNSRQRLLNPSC
Experimental: Human Embryonic Kidney (HEK) 293T cells were cultured as previously described, and were used until passage 20. For ATP measurements, 50,000 cells/well were seeded in 24 well plates pre-coated with 0.01% poly-L-lysine, and transfected using Lipofectamine 2000 (Invitrogen) according to the manufacturer protocol. Briefly, 0.4 μg of α1DAR and 0.4 μg of Panx1^WT, Panx1^KYP>AAA, Panx1^IVEQ>AAA or Panx1^YLK>AAA plasmids were added to each well along with 2 μl of Lipofectamine 2000. For electrophysiology measurements, 4 μg of α1DAR plasmid, 2 μg of Panx1^WT, Panx1^KYP>AAA, Panx1^IVEQ>AAA or Panx1^YLK>AAA plasmids, and 0.5 μg of GFP plasmid were mixed with 10 μl Lipofectamine 2000 and added to a well of 6-well plate seeded with ˜70% confluent HEK cells. Cells were split the next morning and plated onto a glass coverslip for recording. ATP measurements and whole-cell recordings were performed 24 hours after transfection.
Whole-cell recordings were obtained at room temperature from transiently transfected HEK293T cells using Axopatch 200B amplifier (Molecular Devices) in a bath solution composed of 140 mmol/L NaCl, 3 mmol/L KCl, 2 mmol/L MgCl2, 2 mmol/L CaCl2, 10 mmol/L HEPES and 10 mmol/L glucose (pH 7.3). Patch pipettes (3-5 MΩ) were filled with a Cs-/TEA-based internal solution, as previously described. Ramp voltage commands with 7-s intervals were applied using pCLAMP software and Digidata1322A digitizer (Molecular Devices). Peak whole-cell currents were determined at +80 mV and normalized to cell capacitance. Current mediated by Panx1 was defined by its sensitivity to carbenoxolone (CBX). In this system, no CBX-sensitive current is observed in HEK293T cells without Panx1. Basal current was recorded for approximately two minutes and PE (20 μmol/L) was applied to the bath solution, which was followed by addition of CBX (50 μmol/L). When indicated, cells were pre-incubated with bath solution containing IL2 peptide or its scrambled version at room temperature for 40-60 minutes prior to the experiment. The effect of PE on Panx1 current was quantified relative to CBX-sensitive basal current, and data was expressed as percent increase in CBX-sensitive current. All experiments were performed on 8 to 22 cells for each conditions tested. Data were analyzed using a Kruskall Wallis test (non-parametric one-way ANOVA) followed by Dunn's post-hoc test.
To test if α1AR stimulation triggered opening of the Panx1 channel and the importance of the region represented by the IL2 peptide, we cotransfected mPanx1 and α1DAR into HEK293 cells and monitored whole-cell currents by patch clamp electrophysiology.

Row | Compound | ATP release from intact TDAs in response to agonist ([1]; five minutes of agonist, ARL67156 300 μmol/L) | effect of agonist on Panx1 whole-cell current (Panx1; cells expressing both mPanx1 and α1DAR) | effect on phenylephrine-induced ATP release from intact TDAs [1] | effect on phenylephrine-induced Panx1 current (Panx1)
1 | CNC[C@H](O)c1cccc(O)c1 [Phenylephrine, phenylephrine] | stimulated ATP release | increased this current | – | –
2 | scrambled intracellular loop 2 IYLYVEQKPY (SEQ ID NO: 7) linked with a TAT sequence [Scrambled IL2] | – | – | no effect | no effect
3 | KYPIVEQYLKYGRKKQRRR [IL2] | – | – | significantly decreased | significantly decreased
